Measured values from patent US9139587B2, “N1-pyrazolospiroketone acetyl-CoA carboxylase inhibitors” (Pfizer Inc., priority 2009, dated 2015).

Experiments:
[1] = target: T1, recombinant human ACC2 (rhACC2) (Homo sapiens, UniProt O00763, V2141I); assay: recombinant hACC2 Transcreener assay (direct inhibition of ACC2 activity); assay type: biochemical; conditions: Transcreener ADP detection FP assay, 50 μM ATP, 30 μM acetyl-CoA, 50 min at 25° C.
T1 construct: a full length Cytomax clone of ACC2 was purchased from Cambridge Bioscience Limited; made in house; host or cells: CHO cells (tetracycline-induced, pcDNA5 FRT TO-TOPO)
T1 sequence (O00763 whole entry V2141I): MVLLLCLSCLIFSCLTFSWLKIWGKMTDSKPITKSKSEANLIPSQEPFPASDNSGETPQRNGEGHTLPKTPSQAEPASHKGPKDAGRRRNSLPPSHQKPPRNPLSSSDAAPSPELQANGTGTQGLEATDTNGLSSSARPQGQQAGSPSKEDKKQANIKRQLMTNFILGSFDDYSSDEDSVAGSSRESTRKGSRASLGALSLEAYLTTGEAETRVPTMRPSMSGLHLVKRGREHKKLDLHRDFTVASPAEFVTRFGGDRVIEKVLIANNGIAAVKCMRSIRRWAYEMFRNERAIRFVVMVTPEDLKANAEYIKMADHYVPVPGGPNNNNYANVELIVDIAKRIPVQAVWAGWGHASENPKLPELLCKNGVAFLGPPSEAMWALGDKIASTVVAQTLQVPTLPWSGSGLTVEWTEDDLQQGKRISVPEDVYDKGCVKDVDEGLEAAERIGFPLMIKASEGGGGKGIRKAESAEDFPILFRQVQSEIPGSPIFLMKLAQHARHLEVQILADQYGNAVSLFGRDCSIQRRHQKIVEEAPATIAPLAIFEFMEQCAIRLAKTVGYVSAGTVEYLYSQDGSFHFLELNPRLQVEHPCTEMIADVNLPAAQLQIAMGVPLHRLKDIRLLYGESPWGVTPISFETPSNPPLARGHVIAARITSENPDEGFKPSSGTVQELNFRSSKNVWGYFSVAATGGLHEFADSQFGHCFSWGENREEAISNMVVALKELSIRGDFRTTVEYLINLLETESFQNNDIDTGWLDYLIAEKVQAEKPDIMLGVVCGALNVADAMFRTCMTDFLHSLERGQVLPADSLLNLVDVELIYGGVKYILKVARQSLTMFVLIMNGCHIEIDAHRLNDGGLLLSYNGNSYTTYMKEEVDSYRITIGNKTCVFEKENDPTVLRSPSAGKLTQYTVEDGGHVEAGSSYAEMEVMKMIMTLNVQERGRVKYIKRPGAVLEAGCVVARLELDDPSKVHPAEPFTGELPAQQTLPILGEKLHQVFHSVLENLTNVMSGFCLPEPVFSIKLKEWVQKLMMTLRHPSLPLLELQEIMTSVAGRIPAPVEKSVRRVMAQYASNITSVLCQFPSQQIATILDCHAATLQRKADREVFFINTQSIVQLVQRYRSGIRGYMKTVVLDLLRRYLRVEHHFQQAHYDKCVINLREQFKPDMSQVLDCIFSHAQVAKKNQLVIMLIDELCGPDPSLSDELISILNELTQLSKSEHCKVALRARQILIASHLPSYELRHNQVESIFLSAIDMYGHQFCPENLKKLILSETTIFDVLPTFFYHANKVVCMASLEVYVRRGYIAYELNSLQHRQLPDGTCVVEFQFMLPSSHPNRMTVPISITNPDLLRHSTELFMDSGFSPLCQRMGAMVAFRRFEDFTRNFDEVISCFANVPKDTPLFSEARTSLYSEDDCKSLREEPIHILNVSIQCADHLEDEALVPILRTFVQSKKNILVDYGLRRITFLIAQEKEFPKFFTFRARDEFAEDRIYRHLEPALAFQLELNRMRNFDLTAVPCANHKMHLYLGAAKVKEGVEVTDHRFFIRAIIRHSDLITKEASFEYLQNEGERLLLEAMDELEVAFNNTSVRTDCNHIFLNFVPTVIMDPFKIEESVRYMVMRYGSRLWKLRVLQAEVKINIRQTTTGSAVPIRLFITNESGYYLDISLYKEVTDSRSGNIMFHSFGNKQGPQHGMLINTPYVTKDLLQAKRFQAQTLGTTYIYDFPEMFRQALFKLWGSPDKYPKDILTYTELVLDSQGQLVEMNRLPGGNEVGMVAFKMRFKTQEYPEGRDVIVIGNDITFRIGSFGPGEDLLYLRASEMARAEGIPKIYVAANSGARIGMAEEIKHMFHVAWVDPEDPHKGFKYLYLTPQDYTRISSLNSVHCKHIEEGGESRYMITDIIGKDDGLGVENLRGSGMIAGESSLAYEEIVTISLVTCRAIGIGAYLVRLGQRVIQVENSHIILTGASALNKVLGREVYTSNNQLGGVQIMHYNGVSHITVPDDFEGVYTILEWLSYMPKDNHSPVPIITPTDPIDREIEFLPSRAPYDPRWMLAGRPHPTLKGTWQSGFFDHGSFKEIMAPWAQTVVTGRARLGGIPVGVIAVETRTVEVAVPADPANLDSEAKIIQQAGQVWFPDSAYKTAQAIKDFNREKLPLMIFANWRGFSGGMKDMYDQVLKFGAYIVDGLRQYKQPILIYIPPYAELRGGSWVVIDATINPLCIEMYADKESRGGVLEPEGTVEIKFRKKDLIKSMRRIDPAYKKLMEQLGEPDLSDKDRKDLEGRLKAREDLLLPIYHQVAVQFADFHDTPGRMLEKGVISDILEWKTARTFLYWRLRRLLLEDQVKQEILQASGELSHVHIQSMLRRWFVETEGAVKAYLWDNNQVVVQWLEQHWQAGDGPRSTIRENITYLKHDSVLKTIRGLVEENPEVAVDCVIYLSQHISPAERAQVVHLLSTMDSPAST
Method: For example direct inhibition of ACC activity, for the compound of Formula (1) was determined using preparations of recombinant human ACC1 (rhACC1) and recombinant human ACC2 (rhACC2). Representative sequences of the recombinant human ACC1 and ACC2 that can be used in the assay are provided in FIG. 1 (SEQ ID NO. 1) and FIG. 2 (SEQ. ID NO. 2), respectively.
[3] Preparation of rhACC2. Human ACC2 inhibition was measured using purified recombinant human ACC2 (hrACC2). Briefly, a full length Cytomax clone of ACC2 was purchased from Cambridge Bioscience Limited and was sequenced and subcloned into PcDNA5 FRT TO-TOPO (Invitrogen, Carlsbad, Calif.). The ACC2 was expressed in CHO cells by tetracycline induction and harvested in 5 liters of DMEM/F12 with glutamine, biotin, hygromycin and blasticidin with 1 μg/mL tetracycline (Invitrogen, Carlsbad, Calif.). The conditioned medium containing ACC2 was then applied to a Softlink Soft Release Avidin column (Promega, Madison, Wis.) and eluted with 5 mM biotin. 4 mgs of ACC2 were eluted at a concentration of 0.05 mg/mL (determined by A280) with an estimated purity of 95% ([…]). The purified ACC2 was dialyzed in 50 mM Tris, 200 mM NaCl, 4 mM DTT, 2 mM EDTA, and 5% glycerol. The pooled protein was frozen and stored at −80° C., with no loss of activity upon thawing. For measurement of ACC2 activity and assessment of ACC2 inhibition, test compounds were dissolved in DMSO and added to the rhACC2 enzyme as a 5× stock with a final DMSO concentration of 1%.
[4] Measurement of human ACC2 inhibition. hACC2 was assayed in a Costar #3676 (Costar, Cambridge, Mass.) 384-well plate using the Transcreener ADP detection FP assay kit (Bellbrook Labs, Madison, Wisconsin) using the manufacturer's recommended conditions for a 50 uM ATP reaction. The final conditions for the assay were 50 mM HEPES, pH 7.2, 5 mM MgCl2, 5 mM tripotassium citrate, 2 mM DTT, 0.1 mg/mL BSA, 30 μM acetyl-CoA, 50 μM ATP, and 8 mM KHCO3 Typically, a 10 μl reaction was run for 50 min at 25° C., and 10 μl of Transcreener stop and detect buffer was added and the combination incubated at room temp for an additional 1 hour. The data was acquired on an Envision Fluorescence reader (Perkinelmer) using a 620 excitation Cy5 FP general dual mirror, 620 excitation Cy5 FP filter, 688 emission (S) and a 688 (P) emission filter.

[2] = target: T2, recombinant human ACC1 (rhACC1) (Homo sapiens, UniProt Q13085, DEL44-44); assay: recombinant hACC1 Transcreener assay (direct inhibition of ACC1 activity); assay type: biochemical; conditions: Transcreener ADP detection FP assay, 50 μM ATP, 30 μM acetyl-CoA, 120 min at 25° C.
T2 construct: recombinant baculovirus containing full length human ACC1 cDNA; made in house; host or cells: SF9 insect cells (baculovirus)
Method: For example direct inhibition of ACC activity, for the compound of Formula (1) was determined using preparations of recombinant human ACC1 (rhACC1) and recombinant human ACC2 (rhACC2). Representative sequences of the recombinant human ACC1 and ACC2 that can be used in the assay are provided in FIG. 1 (SEQ ID NO. 1) and FIG. 2 (SEQ. ID NO. 2), respectively. Preparation of rhACC1. Two liters of SF9 cells, infected with recombinant baculovirus containing full length human ACC1 cDNA, were suspended in ice-cold lysis buffer (25 mM Tris, pH 7.5; 150 mM NaCl; 10% glycerol; 5 mM imidazole (EMD Bioscience; Gibbstown, N.J.); 2 mM TCEP (BioVectra; Charlottetown, Canada); Benzonase nuclease (10000 U/100 g cell paste; Novagen; Madison, Wis.); EDTA-free protease inhibitor cocktail (1 tab/50 mL; Roche Diagnostics; Mannheim, Germany). Cells were lysed by 3 cycles of freeze-thaw and centrifuged at 40,000×g for 40 minutes (4° C.). Supernatant was directly loaded onto a HisTrap FF crude column (GE Healthcare; Piscataway, N.J.) and eluted with an imidazole gradient up to 0.5 M over 20 column volumes (CV). ACC1-containing fractions were pooled and diluted 1:5 with 25 mM Tris, pH 7.5, 2 mM TCEP, 10% glycerol and direct loaded onto a CaptoQ (GE Healthcare) column and eluted with an NaCl gradient up to 1 M over 20 CV's. Phosphate groups were removed from purified ACC1 by incubation with lambda phosphatase (100 U/10 μM target protein; New England Biolabs; Beverly, Mass.) for 14 hours at 4° C.; okadaic acid was added (1 μM final concentration; Roche Diagnostics) to inhibit the phosphatase. Purified ACC1 was exchanged into 25 mM Tris, pH 7.5, 2 mM TCEP, 10% glycerol, 0.5 M NaCl by 6 hour dialysis at 4° C. Aliquots were prepared and frozen at −80° C. […] The final conditions for the assay were 50 mM HEPES, pH 7.2, 10 mM MgCl2, 7.5 mM tripotassium citrate, 2 mM DTT, 0.1 mg/mL BSA, 30 μM acetyl-CoA, 50 μM ATP, and 10 mM KHCO3 Typically, a 10 μl reaction was run for 120 min at 25° C., and 10 μl of Transcreener stop and detect buffer was added and the combination incubated at room temp for an additional 1 hour. The data was acquired on a Envision Fluorescence reader (Perkinelmer) using a 620 excitation Cy5 FP general dual mirror, 620 excitation Cy5 FP filter, 688 emission (S) and a 688 (P) emission filter.

In the case of CC(C)n1ncc2c1C(=O)C(C)C1(CCN(C(=O)c3ccc4[nH]ncc4c3)CC1)C2 (racemic) [Example 4A-1, 1′-(1H-indazole-5-carbonyl)-1-isopropyl-6-methyl-4,6-dihydrospiro[indazole-5,4′-piperidin]-7(1H)-one], the IC50 [1] is reported as 125 nM and the IC50 [2] is reported as 399 nM.
CC(C)n1ncc2c1C(=O)C(C)C1(CCN(C(=O)c3ccc4[nH]ncc4c3)CC1)C2 (single isomer, unassigned; (+)) [Example 5A-1, (+)-1′-(1H-indazole-5-carbonyl)-1-isopropyl-6-methyl-4,6-dihydrospiro[indazole-5,4′-piperidin]-7(1H)-one] showed an IC50 [1] of 866 nM and an IC50 [2] of 4480 nM.
Work on CC(C)n1ncc2c1C(=O)C(C)C1(CCN(C(=O)c3ccc4[nH]ncc4c3)CC1)C2 (single isomer, unassigned; (-)) [Example 5A-2, (−)-1′-(1H-indazole-5-carbonyl)-1-isopropyl-6-methyl-4,6-dihydrospiro[indazole-5,4′-piperidin]-7(1H)-one] yielded an IC50 [1] of 80.7 nM and an IC50 [2] of 175 nM.
Cc1cc(C(=O)N2CCC3(CC2)CC(=O)c2c(cnn2C(C)C)C3)ccc1Cl [Example 1A-1, 1-isopropyl-1′-(4-chloro-3-methylbenzoyl)-4,6-dihydrospiro[indazole-5,4′-piperidin]-7(1H)-one] gave an IC50 [1] of 68 nM and an IC50 [2] of 267 nM.
For Cc1cc(C(=O)N2CCC3(CC2)CC(=O)c2c(cnn2C(C)(C)C)C3)ccc1Cl [Example 1A-2], the IC50 [1] was 62.3 nM and the IC50 [2] was 444 nM.
Cc1cc(C(=O)N2CCC3(CC2)CC(=O)c2c(cnn2C2CCC2)C3)ccc1Cl [Example 1A-3] showed an IC50 [1] of 155 nM and an IC50 [2] of 646 nM.
Cc1cc(C(=O)N2CCC3(CC2)CC(=O)c2c(cnn2Cc2ccccc2)C3)ccc1Cl [Example 1A-4] showed an IC50 [1] of 719 nM and an IC50 [2] of 2980 nM.
Cc1cc(C(=O)N2CCC3(CC2)CC(=O)c2c(cnn2C2CCOC2)C3)ccc1Cl (centres unmarked) [Example 1A-5] gave an IC50 [1] of 127 nM and an IC50 [2] of 800 nM.
CC(C)n1ncc2c1C(=O)CC1(CCN(C(=O)c3cnc4[nH]ncc4c3)CC1)C2 [Example 2A-1, 1-Isopropyl-1′-(1H-pyrazolo[3,4-b]pyridine-5-carbonyl)-4,6-dihydrospiro[indazole-5,4′-piperidin]-7(1H)-one] showed an IC50 [1] of 69.7 nM and an IC50 [2] of 282 nM.
Compound Cc1cc(C(=O)N2CCC3(CC2)CC(=O)c2c(cnn2CC2CCCO2)C3)ccc1Cl (centres unmarked) [Example 2A-2] has an IC50 [1] of 3570 nM and an IC50 [2] of 8300 nM.
COCC(C)n1ncc2c1C(=O)CC1(CCN(C(=O)c3ccc(Cl)c(C)c3)CC1)C2 (centres unmarked) [Example 2A-3] gave an IC50 [1] of 680 nM and an IC50 [2] of 2720 nM.
For Cc1cc(C(=O)N2CCC3(CC2)CC(=O)c2c(cnn2C)C3)ccc1Cl [Example 2A-4], the IC50 [1] was 2530 nM and the IC50 [2] was 8730 nM.
Cc1cc(C(=O)N2CCC3(CC2)CC(=O)c2c(cnn2CC(C)C)C3)ccc1Cl [Example 2A-5] showed an IC50 [1] of 481 nM and an IC50 [2] of 1220 nM.
With Cc1cc(C(=O)N2CCC3(CC2)CC(=O)c2c(cnn2C(C)c2ccccc2)C3)ccc1Cl (centres unmarked) [Example 2A-6] the IC50 [1] was 88.8 nM and the IC50 [2] was 640 nM.
Compound CCn1ncc2c1C(=O)CC1(CCN(C(=O)c3ccc(Cl)c(C)c3)CC1)C2 [Example 2A-7] has an IC50 [1] of 965 nM and an IC50 [2] of 4340 nM.
For COCCn1ncc2c1C(=O)CC1(CCN(C(=O)c3ccc(Cl)c(C)c3)CC1)C2 [Example 2A-8], the IC50 [1] was 4890 nM and the IC50 [2] was 16000 nM.
In the case of CCCn1ncc2c1C(=O)CC1(CCN(C(=O)c3ccc(Cl)c(C)c3)CC1)C2 [Example 2A-9], the IC50 [1] is reported as 1850 nM and the IC50 [2] is reported as 4260 nM.
CC(C)n1ncc2c1C(=O)CC1(CCN(C(=O)c3ccc4cnn(C)c4c3)CC1)C2 [Example 2A-10] was tested, and the IC50 [1] was 29.2 nM and the IC50 [2] was 188 nM.
With CC(C)n1ncc2c1C(=O)CC1(CCN(C(=O)c3ccc4c(cnn4C)c3)CC1)C2 [Example 2A-11] the IC50 [1] was 33.5 nM and the IC50 [2] was 261 nM.
CC(C)n1ncc2c1C(=O)CC1(CCN(C(=O)c3ccc4cc[nH]c(=O)c4c3)CC1)C2 [Example 2A-13] showed an IC50 [1] of 28 nM and an IC50 [2] of 95.3 nM.
In the case of CC(C)n1ncc2c1C(=O)CC1(CCN(C(=O)c3ccc4c(=O)[nH]ccc4c3)CC1)C2 [Example 2A-14], the IC50 [1] is reported as 27 nM and the IC50 [2] is reported as 172 nM.
Cc1ncc(C(=O)N2CCC3(CC2)CC(=O)c2c(cnn2C(C)C)C3)c(N)n1 [Example 2A-15] showed an IC50 [1] of 775 nM and an IC50 [2] of 2030 nM.
Work on CC(C)n1ncc2c1C(=O)CC1(CCN(C(=O)c3cc(Cl)c4[nH]ncc4c3)CC1)C2 [Example 2A-16] yielded an IC50 [1] of 13.6 nM and an IC50 [2] of 46.9 nM.
Cc1cc(N(C)C)ncc1C(=O)N1CCC2(CC1)CC(=O)c1c(cnn1C(C)C)C2 [Example 2A-18] gave an IC50 [1] of 458 nM and an IC50 [2] of 1010 nM.
CC(C)n1ncc2c1C(=O)CC1(CCN(C(=O)c3cnc4cc[nH]c4c3)CC1)C2 [Example 2A-19] gave an IC50 [1] of 22.1 nM and an IC50 [2] of 57.4 nM.
CC(C)n1ncc2c1C(=O)CC1(CCN(C(=O)c3cc4cccnc4[nH]3)CC1)C2 [Example 2A-20] gave an IC50 [1] of 93 nM and an IC50 [2] of 121 nM.
Cc1nc2ccc(C(=O)N3CCC4(CC3)CC(=O)c3c(cnn3C(C)(C)C)C4)cc2[nH]1 [Example 2A-21] was tested, and the IC50 [1] was 32.7 nM and the IC50 [2] was 93.3 nM.
CC(C)(C)n1ncc2c1C(=O)CC1(CCN(C(=O)c3ccc4c(=O)[nH]ccc4c3)CC1)C2 [Example 2A-22] showed an IC50 [1] of 334 nM and an IC50 [2] of 1890 nM.
CC(C)(C)n1ncc2c1C(=O)CC1(CCN(C(=O)c3cnc4[nH]ccc4c3)CC1)C2 [Example 2A-23] gave an IC50 [1] of 23.3 nM and an IC50 [2] of 32.3 nM.
With CC(C)(C)n1ncc2c1C(=O)CC1(CCN(C(=O)c3cnc4cc[nH]c4c3)CC1)C2 [Example 2A-24] the IC50 [1] was 15.8 nM and the IC50 [2] was 30.7 nM.
CC(C)(C)n1ncc2c1C(=O)CC1(CCN(C(=O)c3cc(Cl)c4[nH]ncc4c3)CC1)C2 [Example 2A-25] showed an IC50 [1] of 22.7 nM and an IC50 [2] of 69.5 nM.
In the case of CC(C)n1ncc2c1C(=O)CC1(CCN(C(=O)c3ccc4c(c3)CC(=O)N4)CC1)C2 [Example 2A-27], the IC50 [1] is reported as 91.8 nM and the IC50 [2] is reported as 308 nM.
Compound CC(C)(C)n1ncc2c1C(=O)CC1(CCN(C(=O)c3ccc4[nH]ncc4c3)CC1)C2 [Example 2A-28] has an IC50 [1] of 17 nM and an IC50 [2] of 47.8 nM.
With CC(C)(C)n1ncc2c1C(=O)CC1(CCN(C(=O)c3ccc4[nH]c(=O)[nH]c4c3)CC1)C2 [Example 2A-29] the IC50 [1] was 9.81 nM and the IC50 [2] was 24.1 nM.
